Source: patent US10604509B2, “Nrf2 regulators” (GlaxoSmithKline Intellectual Property Development Limited, priority 2015, dated 2020)
Where a name gives a salt, the structure may show the parent alone. Read-outs that look alike come from different tables or passages of the source.

Tested on: NQO1 specific enzyme activity in BEAS-2B cells
Test: BEAS-2B NQO1 MTT assay
Type: cell-based
Settings: BEAS-2B cells, 48 hours with compound, MTT readout, read-out: EC50 of NQO1 specific activity induction
In short: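 BEAS-2B cells treated with compound 48 h at 37° C, 5% CO2, then lysed; NQO1 activity in lysate measured kinetically by MTT cocktail at Absorbance 570 nm over 30 min. EC50 for induction from Delta OD/min versus log concentration, 3-parameter fit; Cell Titer Glo run on lysate aliquot.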

| SMILES | EC50 (Homo sapiens, BEAS-2B, 48 h) [µM] | EC50 [µM] |
| --- | --- | --- |
| Cc1ccc([C@H](CC(=O)O)c2ccc3c(nnn3C)c2C)cc1CN1CCCC(Cn2cccn2)C1 (stereo partly drawn) [Example 215, (3S)-3-(3-((3-((1H-Pyrazol-1-yl)methyl)piperidin-1-yl)methyl)-4-methylphenyl)-3-(1,4-dimethyl-1H-benzo[d][1,2,3]triazol-5-yl)propanoic Acid] | 1 to 10 |  |
| CCN1CCN(Cc2cc(C(c3ccc4c(nnn4C)c3C)C(C)(C)C(=O)O)ccc2C)Cc2ccccc21 (stereo not shown) [Example 111, 3-(1,4-dimethyl-1H-benzo[d][1,2,3]triazol-5-yl)-3-(3-((1-ethyl-2,3-dihydro-1H-benzo[e][1,4]diazepin-4(5H)-yl)methyl)-4-methylphenyl)-2,2-dimethylpropanoic Acid, Formic Acid Salt] | 0.01 to 0.1 |  |
| Cc1ncc(C(c2ccc3c(nnn3C)c2C)C(C)(C)C(=O)O)cc1Cn1ccnc1CC1CCCCCC1 (stereo not shown) [Example 214, 3-(5-((2-(Cycloheptylmethyl)-1H-imidazol-1-yl)methyl)-6-methylpyridin-3-yl)-3-(1,4-dimethyl-1H-benzo[d][1,2,3]triazol-5-yl)-2,2-dimethylpropanoic Acid, Trifluoroacetic Acid Salt] | 0.1 to 1 |  |
| Cc1ccc2c(c1)OC(C)(C)CN(Cc1cc([C@H](CC(=O)O)c3ccc4c(nnn4C)c3C)ccc1C)C2 [Example 180, (S)-3-(1,4-Dimethyl-1H-benzo[d][1,2,3]triazol-5-yl)-3-(4-methyl-3-((2,2,8-trimethyl-2,3-dihydrobenzo[f][1,4]oxazepin-4(5H)-yl)methyl)phenyl) propanoic acid] | 0.01 to 0.1 |  |
| CCC1CN(Cc2cc([C@H](c3ccc4c(nnn4C)c3C)C(C)C(=O)O)ccc2C)Cc2ccccc2O1 (stereo partly drawn) [Example 102, (3R)-3-(1,4-dimethyl-1H-benzo[d][1,2,3]triazol-5-yl)-3-(3-((2-ethyl-2,3-dihydrobenzo[f][1,4]oxazepin-4(5H)-yl)methyl)-4-methylphenyl)-2-methylpropanoic Acid] | < 0.001 |  |
| Cc1ccc(C(CC(=O)O)c2ccc3c(nnn3C)c2C)cc1CN1Cc2ccccc2OC(C)C1 (stereo not shown) [Example 3, trifluoroacetic Acid Salt] | 1 to 10 |  |
| Cc1ccc(C(CC(=O)O)c2ccc3c(nnn3C)c2C)cc1Cn1nc(CC2CCCCC2)nc1C (stereo not shown) [Example 137, 3-(3-((3-(Cyclohexylmethyl)-5-methyl-1H-1,2,4-triazol-1-yl)methyl)-4-methylphenyl)-3-(1,4-dimethyl-1H-benzo[d][1,2,3]triazol-5-yl)propanoic Acid] | 0.1 to 1 |  |
| Cc1ccc2c(c1)CN(Cc1cc([C@H](CC(=O)O)c3ccc4c(nnn4C)c3C)ccc1C)CC(C)(C)O2 [Example 176, (S)-3-(1,4-Dimethyl-1H-benzo[d][1,2,3]triazol-5-yl)-3-(4-methyl-3-((2,2,7-trimethyl-2,3-dihydrobenzo[f][1,4]oxazepin-4(5H)-yl)methyl)phenyl) propanoic acid] | 0.01 to 0.1 |  |
| Cc1ccc([C@@H](CC(=O)O)c2ccc3c(nnn3C)c2C)cc1CN1Cc2ccccc2OC(C)(C)C1 [Example 110, (R)-3-(1,4-dimethyl-1H-benzo[d][1,2,3]triazol-5-yl)-3-(3-((2,2-dimethyl-2,3-dihydrobenzo[f][1,4]oxazepin-4(5H)-yl)methyl)-4-methylphenyl)propanoic Acid, Formic Acid Salt] | < 0.001 |  |
| Cc1ccc(C(CC(=O)O)c2ccc3c(nnn3C)c2C)cc1CN1CCCC(n2cccn2)C1 (stereo not shown) [Example 9, Ammonium 3-(3-((3-(1H-pyrazol-1-yl)piperidin-1-yl)methyl)-4-methylphenyl)-3-(1,4-dimethyl-1H-benzo[d][1,2,3]triazol-5-yl)propanoate] | 1 to 10 |  |
| CCCn1cc(CCC(c2ccc(C)c(Cn3ccnc3CN3CCC(CC)CC3)c2)C(C)(C)C(=O)O)nn1 (single isomer, unassigned) [Example 248, 3-(3-((2-((4-ethylpiperidin-1-yl)methyl)-1H-imidazol-1-yl)methyl)-4-methylphenyl)-2,2-dimethyl-5-(1-propyl-1H-1,2,3-triazol-4-yl)pentanoic Acid] |  | 0.01 to 0.1 |
| Cc1ccc(C(c2ccc3c(nnn3C)c2C)C(C)(C)C(=O)O)cc1CN1CCCn2cncc2C1 (stereo not shown) [Example 37, 3-(3-((6,7-Dihydro-5H-imidazo[1,5-a][1,4]diazepin-8(9H)-yl)methyl)-4-methylphenyl)-3-(1,4-dimethyl-1H-benzo[d][1,2,3]triazol-5-yl)-2,2-dimethylpropanoate, Sodium salt] | 1 to 10 |  |
| CC[C@@H]1CN(Cc2cc(C(CCc3cn(CC)nn3)C(C)(C)C(=O)O)ccc2C)Cc2ccncc2O1 (stereo partly drawn) [Example 220, 5-(1-Ethyl-1H-1,2,3-triazol-4-yl)-3-(3-(((R)-2-ethyl-2,3-dihydropyrido[4,3-f][1,4]oxazepin-4(5H)-yl)methyl)-4-methylphenyl)-2,2-dimethylpentanoic Acid, 3.2 Trifluoroacetic Acid Salt] | 0.01 to 0.1 |  |
| COc1ccc2c(c1)OC(C)(C)CN(Cc1cc([C@@H](CC(=O)O)c3ccc4c(nnn4C)c3C)ccc1C)C2 [Example 167, (R)-3-(1,4-Dimethyl-1H-benzo[d][1,2,3]triazol-5-yl)-3-(3-((8-methoxy-2,2-dimethyl-2,3-dihydrobenzo[f][1,4]oxazepin-4(5H)-yl)methyl)-4-methylphenyl)propanoic acid] | 0.01 to 0.1 |  |
| COc1ccc2c(c1)CN(Cc1cc([C@H](CC(=O)O)c3ccc4c(nnn4C)c3C)ccc1C)CC(C)(C)O2 [Example 165, (S)-3-(1,4-Dimethyl-1H-benzo[d][1,2,3]triazol-5-yl)-3-(3-((7-methoxy-2,2-dimethyl-2,3-dihydrobenzo[f][1,4]oxazepin-4(5H)-yl)methyl)-4-methylphenyl)propanoic acid, 0.5 Formic Acid Salt] | 0.001 to 0.01 |  |
| Cc1c(C(CC(=O)O)c2ccc(F)c(CN3Cc4ccccc4O[C@@H](C)C3)c2)ccc2c1nnn2C (stereo partly drawn) [Example 95, 3-(1,4-Dimethyl-1H-benzo[d][1,2,3]triazol-5-yl)-3-(4-fluoro-3-(((S)-2-methyl-2,3-dihydrobenzo[f][1,4]oxazepin-4(5H)-yl)methyl)phenyl)propanoic Acid, Formic Acid Salt] | 0.1 to 1 |  |
| COc1ccc2c(c1)OC(C)(C)CN(Cc1cc([C@H](CC(=O)O)c3ccc4c(nnn4C)c3C)ccc1C)C2 [Example 168, (S)-3-(1,4-Dimethyl-1H-benzo[d][1,2,3]triazol-5-yl)-3-(3-((8-methoxy-2,2-dimethyl-2,3-dihydrobenzo[f][1,4]oxazepin-4(5H)-yl)methyl)-4-methylphenyl)propanoic acid] | 0.01 to 0.1 |  |
| CC[C@@H]1CN(Cc2cc(C(CCc3cn(CC)nn3)CC(=O)O)ccc2Cl)Cc2ncccc2O1 (stereo partly drawn) [Example 231, 3-(4-Chloro-3-(((R)-2-ethyl-2,3-dihydropyrido[2,3-f][1,4]oxazepin-4(5H)-yl)methyl)phenyl)-5-(1-ethyl-1H-1,2,3-triazol-4-yl)pentanoic Acid] | 0.1 to 1 |  |
| COc1ccc(C2COCCN2Cc2cc(C(CC(=O)O)c3ccc4c(nnn4C)c3C)ccc2C)cc1 (stereo not shown) [Example 21, 3-(1,4-dimethyl-1H-benzo[d][1,2,3]triazol-5-yl)-3-(3-((3-(4-methoxyphenyl)morpholino)methyl)-4-methylphenyl)propanoic acid, formic acid salt] | 1 to 10 |  |
